In one assay the test system is PancO2 tumors. In words: In vivo efficacy in PancO2 pancreatic cancer syngeneic model. Details: species or system C57/B16 mice. As to conditions: PancO2, 100 mg/kg BID oral. On the procedure:
In vivo efficacy studies of the Compounds of the present invention were performed on PancO2 syngeneic tumor model of C57/B16 mice implanted subcutaneously. Five millions PancO2 pancreas cancer cells were implanted subcutaneously to 7 weeks old C57/B16 mice (day 0). Animals were randomized based on tumor size when tumor average reached 60 mm^3 (between day 10 and 12) into different treatment cohorts. The Compound was administered orally twice per day (approximately at 9 am and 5 pm) starting the day of randomization. The Compound was suspended into Methocel vehicle and sonicated before oral administration to animals using gavage needles. Treatment was administered daily until the end of the study. All experimental animals were monitored for body weight changes weekly. Tumor volume was measured weekly using a caliper device and calculated with the following formula: Tumor volume=0.5×(length×width^2). Studies were terminated before tumor volumes reached 2000 mm. TGI (% tumor growth inhibition) was determined as
Treatment was administered daily until the end of the study. Tumor volume was measured weekly using a caliper device and calculated with the following formula: Tumor volume=0.5×(length×width^2). Mice were considered as dead when tumor size reached 400 mm^3. […] SEM refers to standard error of measurement.

A further assay has as its system Kynurenine. In words: In-vivo inhibition of blood kynurenine levels in healthy mice. As to conditions: two hours. Details: species or system mouse. On the procedure:
The compounds of the present invention reduce the amount of Kynurenine in healthy mouse blood.
Briefly, mice were treated with either a suspension of one of the compounds of the present invention in 0.5% hydroxypropyl methylcellulose (HPMC) K4M/0.25% Tween 20 at different doses, or with a vehicle control (0.5% HPMC K4M/0.25% Tween 20), by the oral route by gavage (dosing volume 5 mL/kg, 10 mice per group). After two hours, blood was harvested, plasma was prepared and the amount of Kynurenine present was determined by LC-MS-MS (HPLC column Unison UK-Phenyl, 75×4.6, 3 μm, flow rate 0.8 mL/min, 4 minutes gradient from water+0.2% acetic acid to methanol+0.1% formic acid, retention time 2.7 min; API4000™ MS-MS system from AB Sciex, ESI+ mode, parent ion 209.2, daughter ion 94.1).

The target in assay [1] is T1, hIDO1 (Homo sapiens (Human), UniProt P14902). In words: Assay for IDO1 enzymatic activity determination. Type of assay: biochemical. The settings on record: human recombinant IDO1 enzyme, L-Trp 100 μM.
Experimental: To measure enzymatic activity of human IDO1, the reaction mixture contained (final concentrations) potassium phosphate buffer (50 mM, pH 6.5), ascorbic acid (10 mM), methylene blue (5 μM) and human recombinant IDO1 enzyme (prepared as described in Rohrig et al. J Med Chem, 2012, 55, 5270-5290; final concentration 5 μg/mL) without or with the compounds of the present invention at the indicated concentrations (total volume 112.5 μL). The reaction was initiated by the addition of 37.5 μL of L-Trp (final concentration 100 μM) at room temperature. The reaction was conducted at room temperature during 15 minutes and stopped by the addition of 30 μL of 30% (w/v) trichloroacetic acid.
To convert N-formylkynurenine into kynurenine, the reaction mixture was incubated at 65° C. for 30 min. Then 120 μL of 2.5% (w/v) 4-(dimethylamino)-benzaldehyde in acetic acid were added and the mixture incubated for 5 min at room temperature. Kynurenine concentrations were determined by measuring the absorbance at 480 nm. A standard curve was made with pure kynurenine. The IDO1 activity was measured as described above using ten serial concentrations of the compounds of the present invention. Data were fitted using the Prism software (GraphPad Software, Inc.).
In assay [2] the target is T1, hIDO1. In words: Cellular assay for IDO activity determination: hIDO1 P815 cells. As to conditions: P815 cells overexpressing hIDO1, 24 hours. It counts as cell-based. How it is done:
To determine IDO1 activity, the cells were incubated 24 hours at 37° C. at 5% CO2 in IMDM (Invitrogen) supplemented with 2% FBS and 2% penicillin/streptomycin in the presence of the compounds of the present invention, at different concentrations.
The plates were then centrifuged 5 min at 1000 rpm, and 100 μL of the supernatant were collected in a conical plate, 30 uL of TCA 30% were added and a further centrifugated at 3000×g for 10 minutes. 100 μL of the supernatant were collected in a flat bottomed plate and 100 μL of 2% (w/v) 4-(dimethylamino)-benzaldehyde in acetic acid and incubated for 5 min at room temperature. […] A standard curve was made with pure kynurenine.

Assay [3] has as its target T1, hIDO1. In words: Cellular assay for IDO1 activity determination: HeLa cells. Type of assay: cell-based. The settings on record: HeLa cells stimulated with IFNγ. How it is done:
The assay was performed in 96-well flat bottom plates seeded with the human cervical cancer HeLa cell line with stimulation with IFN.
To adhere HeLa cells (concentration of 5×10^3 cells/well) were incubated overnight at 37° C. at 5% CO2 in EMEM (Lonza) supplemented with 10% FBS, 2% penicillin/streptomycin and 2 mM Ultraglutamin, in a final volume of 200 μL.
To stimulate the expression of IDO1, cells were then incubated two days at 37° C. at 5% CO2 in EMEM (Lonza) supplemented with 2% FBS, 2% penicillin/streptomycin and 2 mM Ultraglutamine and 100 ng/mL IFNγ (R&D).
To determine IDO1 activity, medium was removed then the cells were incubated one day at 37° C. at 5% CO2 in EMEM (Lonza) supplemented with 2% FBS and 2% penicillin/streptomycin in the presence of the compounds of the present invention, at different concentrations. Then 100 μL of the supernatant were collected in a conical plate, 30 uL of TCA 30% were added and a centrifugation was made at 3000×g for 10 minutes. 100 μL of the supernatant were collected in a flat bottom plate and 100 μL of 2% (w/v) 4-(dimethylamino)-benzaldehyde in acetic acid and incubated for 5 min at room temperature. […] A standard curve was made with pure kynurenine.

A value given as a limit tells only on which side of the number the result lay.

Results on 26 compounds are retold here after patent US9603836B2, “Pyrrolidine-2, 5-dione derivatives, pharmaceutical compositions and methods for use as IDO1 inhibitors” (ITEOS THERAPEUTICS, priority 2014, dated 2017).

T1 sequence (P14902 whole entry): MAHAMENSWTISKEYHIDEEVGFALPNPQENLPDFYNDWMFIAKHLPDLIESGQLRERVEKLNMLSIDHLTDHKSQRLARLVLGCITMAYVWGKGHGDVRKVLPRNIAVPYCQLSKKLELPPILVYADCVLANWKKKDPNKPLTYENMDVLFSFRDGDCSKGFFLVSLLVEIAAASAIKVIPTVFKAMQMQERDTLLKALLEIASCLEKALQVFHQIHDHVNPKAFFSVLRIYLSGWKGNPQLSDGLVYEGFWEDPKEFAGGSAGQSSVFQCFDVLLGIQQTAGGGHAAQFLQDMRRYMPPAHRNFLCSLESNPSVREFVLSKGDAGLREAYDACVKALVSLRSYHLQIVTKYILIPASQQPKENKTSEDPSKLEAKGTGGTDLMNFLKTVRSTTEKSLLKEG

`O=C1C[C@H](c2c[nH]c3ccc(F)cc23)C(=O)N1` [Compound 2, (−)-(R)-3-(5-fluoro-1H-indol-3-yl)pyrrolidine-2,5-dione]: the “Mean tumor volume +/− SEM on day 55” value with PancO2 tumors is 586.6 +/− 48.4 mm^3. Further, in the assay with PancO2 tumors (day 55), the “TGI +/− SEM (Tumor growth inhibition)” value amounted to 16.8% +/− 8.2. Further, the “Kynurenine concentration in plasma (average ± standard error of the mean)” value in the assay with Kynurenine (10 mg/kg oral) turned out to be 122 ± 3.5 ng/mL; with Kynurenine (30 mg/kg oral), 91.0 ± 4.4 ng/mL; in the assay on Kynurenine (100 mg/kg oral), 64.0 ± 3.8 ng/mL. Besides, the figures for the “inhibition of circulating Kynurenine” value with Kynurenine (10 mg/kg oral), in the assay on Kynurenine (30 mg/kg oral) and in the assay with Kynurenine (100 mg/kg oral) were 39%, 55% and 68%, respectively.

In general, IC50 refers to the concentration at which inhibition is half-maximal. With `O=C1CC(c2c[nH]c3cc(Cl)ccc23)C(=O)N1` (stereo not drawn) [Compound 18, 3-(6-chloro-1H-indol-3-yl)pyrrolidine-2,5-dione], the 50% inhibitory concentration (IC50) on hIDO1 [1] came out at 2100 nM; on hIDO1 [2], 500 nM.

For `Cc1cc2[nH]cc(C3CC(=O)NC3=O)c2cc1F` (stereo not drawn) [Compound 16, 3-(5-fluoro-6-methyl-1H-indol-3-yl)pyrrolidine-2,5-dione], the IC50 on hIDO1 [1] worked out at 46000 nM.

For the compound `O=C1CC(c2c[nH]c3cc(F)c(F)cc23)C(=O)N1` (stereo not drawn) [Compound 15, 3-(5,6-difluoro-1H-indol-3-yl)pyrrolidine-2,5-dione], the values for the IC50 on hIDO1 [1] and against hIDO1 [2] were 1800 nM and 260 nM, respectively.

In the case of `O=C1CC(c2c[nH]c3ccc(Cl)cc23)C(=O)N1` (stereo not drawn) [Compound 5, 3-(5-chloro-1H-indol-3-yl)pyrrolidine-2,5-dione], the IC50 at hIDO1 [1] was determined as 2100 nM; on hIDO1 [2] it was 590 nM.

With `O=C1C[C@H](c2c[nH]c3cc(Cl)c(F)cc23)C(=O)N1` [Compound 8, (R)-3-(6-chloro-5-fluoro-1H-indol-3-yl)pyrrolidine-2,5-dione], on hIDO1 [3], the IC50 came out at 3600 nM.

Regarding `O=C1CC(c2cccc3ccc(F)cc23)C(=O)N1` (stereo not drawn) [Compound 25, 3-(7-fluoronaphthalen-1-yl)pyrrolidine-2,5-dione], the IC50 on hIDO1 [1] was determined as 4600 nM.

As for `O=C1C[C@@H](c2c[nH]c3cc(Br)c(F)cc23)C(=O)N1` [Compound 10a, (S)-3-(6-bromo-5-fluoro-1H-indol-3-yl)pyrrolidine-2,5-dione], the IC50 on hIDO1 [1] came to 8000 nM.

On to `O=C1C[C@H](c2c[nH]c3cc(Br)c(F)cc23)C(=O)N1` [Compound 10, (R)-3-(6-bromo-5-fluoro-1H-indol-3-yl)pyrrolidine-2,5-dione], for which the IC50 on hIDO1 [1] amounted to 620 nM.

Turning to `O=C1C[C@H](c2c[nH]c3ccccc23)C(=O)N1` [Compound 4, (−)-(R)-3-(1H-indol-3-yl)pyrrolidine-2,5-dione], the results for the IC50 on hIDO1 [1] and against hIDO1 [2] were 1800 nM and 240 nM, respectively.

`O=C1CC(c2c[nH]c3cc(Cl)c(F)cc23)C(=O)N1` (stereo not drawn) [Compound 7, 3-(6-chloro-5-fluoro-1H-indol-3-yl)pyrrolidine-2,5-dione]: the IC50 on hIDO1 [1] was 490 nM.

In the case of `O=C1CC(c2c[nH]c3cc(F)ccc23)C(=O)N1` (stereo not drawn) [Compound 17, 3-(6-fluoro-1H-indol-3-yl)pyrrolidine-2,5-dione], the IC50 on hIDO1 [1] turned out to be 3400 nM.

For `O=C1CC(c2c[nH]c3cc(Br)ccc23)C(=O)N1` (stereo not drawn) [Compound 19, 3-(6-bromo-1H-indol-3-yl)pyrrolidine-2,5-dione], the IC50 on hIDO1 [1] was 420 nM.

With `COc1ccc2[nH]cc(C3CC(=O)NC3=O)c2c1` (stereo not drawn) [Compound 13, 3-(5-methoxy-1H-indol-3-yl)pyrrolidine-2,5-dione], the IC50 on hIDO1 [1] came to 53000 nM.

Consider `N#Cc1ccc2c(C3CC(=O)NC3=O)c[nH]c2c1` (stereo not drawn) [Compound 22, 3-(2,5-dioxopyrrolidin-3-yl)-1H-indole-6-carbonitrile], for which, on hIDO1 [1], the half-maximal inhibitory concentration (IC50) came to 1700 nM.

For `Cc1ccc2[nH]cc(C3CC(=O)NC3=O)c2c1` (stereo not drawn) [Compound 12, 3-(5-methyl-1H-indol-3-yl)pyrrolidine-2,5-dione], the IC50 at hIDO1 [1] was found to be 53000 nM.

Take `O=C1CC(c2c[nH]c3ccccc23)C(=O)N1` (stereo not drawn) [Compound 3, 3-(1H-indol-3-yl)pyrrolidine-2,5-dione]: the results for the IC50 on hIDO1 [1] and on hIDO1 [2] were 3000 nM and 920 nM, respectively.

For `O=C1CC(c2c[nH]c3cc(Br)c(F)cc23)C(=O)N1` (stereo not drawn) [Compound 9, 3-(6-bromo-5-fluoro-1H-indol-3-yl)pyrrolidine-2,5-dione], the IC50 against hIDO1 [3] was found to be 7000 nM; on hIDO1 [1], 290 nM.

Consider `O=C1C[C@@H](c2c[nH]c3ccc(Cl)cc23)C(=O)N1` [Compound 6a, (+)-(S)-3-(5-chloro-1H-indol-3-yl)pyrrolidine-2,5-dione], for which, at hIDO1 [1], the IC50 was more than 50000 nM.

Turning to `Cc1ccc2c(C3CC(=O)NC3=O)c[nH]c2c1` (stereo not drawn) [Compound 20, 3-(6-methyl-1H-indol-3-yl)pyrrolidine-2,5-dione], the IC50 on hIDO1 [1] amounted to 54000 nM.

As for `O=C1CC(c2cccc3ccccc23)C(=O)N1` (stereo not drawn) [Compound 23, 3-(naphthalen-1-yl)pyrrolidine-2,5-dione], the half-inhibitory concentration (IC50) at hIDO1 [1] amounted to 18000 nM.

Regarding `O=C1C[C@@H](c2c[nH]c3ccccc23)C(=O)N1` [Compound 4a, (+)-(S)-3-(1H-indol-3-yl)pyrrolidine-2,5-dione], the IC50 is more than 50000 nM at hIDO1 [1] and 3300 nM on hIDO1 [2].

With `O=C1C[C@H](c2c[nH]c3ccc(Cl)cc23)C(=O)N1` [Compound 6, (−)-(R)-3-(5-chloro-1H-indol-3-yl)pyrrolidine-2,5-dione], the 50% inhibitory concentration (IC50) on hIDO1 [3] stood at 3400 nM; on hIDO1 [1] it was 2200 nM.

For the compound `N#Cc1ccc2[nH]cc(C3CC(=O)NC3=O)c2c1` (stereo not drawn) [Compound 14, 3-(2,5-dioxopyrrolidin-3-yl)-1H-indole-5-carbonitrile], the IC50 at hIDO1 [1] amounted to 12000 nM.

As for `O=C1CC(c2cccc3cc(F)ccc23)C(=O)N1` (stereo not drawn) [Compound 24, 3-(6-fluoronaphthalen-1-yl)pyrrolidine-2,5-dione], the IC50 on hIDO1 [1] worked out at 1700 nM.

As to `O=C1CC(c2c[nH]c3ccc(Br)cc23)C(=O)N1` (stereo not drawn) [Compound 11, 3-(5-bromo-1H-indol-3-yl)pyrrolidine-2,5-dione], the IC50 on hIDO1 [3] turned out to be 5900 nM; at hIDO1 [1] it was 370 nM.
